Legend:
[1] = test system: 60 different human tumor cell lines; experiment: NCI Development Therapeutics Program 60 cell line screen, one dose; assay type: cell-based
SK-MEL-5 = experiment: Melanoma cytotoxicity assay (resazurin); assay type: cell-based; conditions: SK-MEL-5 melanoma cells, 24 hours with compound, resazurin; concentration not given
Outline: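 Readout: resazurin fluorescence (ex 544, em 590 nm) after 6 h dye incubation, following 24 h compound exposure of ~4000 cells/well. Viability = background-subtracted signal over DMSO wells; IC50 by sigmoidal curve fitting.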

[2] = Non-small Cell Lung Cancer, A549/ATCC
[3] = Non-small Cell Lung Cancer, EKVX
[4] = Non-small Cell Lung Cancer, HOP-62
[5] = Non-small Cell Lung Cancer, HOP-92
[6] = Non-small Cell Lung Cancer, NCI-H23
[7] = Non-small Cell Lung Cancer, NCI-H226
[8] = Non-small Cell Lung Cancer, NCI-H322M
[9] = Non-small Cell Lung Cancer, NCI-H460

Q: `C[C@]12CCc3sc(Nc4ccc(F)cc4F)nc3C1=CC[C@@H]1[C@@H]2CC[C@]2(C)C(=O)CC[C@@H]12` [IIa.10, (1S,2R,13R,14S,18S)-7-(2,4-difluoroanilino)-2,18-dimethyl-6-thia-8-azapentacyclo[11.7.0.02,10.05,9.014,18]icosa-5(9),7,10-trien-17-one] was tested. Which “Growth Percent” value ([1]; Breast Cancer, BT-549) did it give?
A: Its value is 59.58%.

Q: And the “Growth Percent” value ([1]; Breast Cancer, HS 578T)?
A: The value was 55.28%.

Q: And the “Growth Percent” value ([1]; Breast Cancer, MCF7)?
A: Its value is 14.62%.

Q: And the “Growth Percent” value ([1]; Breast Cancer, MDA-MB-231/ATCC)?
A: The value was 76.10%.

Q: And the “Growth Percent” value ([1]; Breast Cancer, MDA-MB-468)?
A: The value was 23.25%.

Q: What about the “Growth Percent” value ([1]; Breast Cancer, T-47D) of the same molecule?
A: The value was 48.94%.

Q: What about the “Growth Percent” value ([1]; CNS Cancer, SF-268) of the same molecule?
A: The value was 70.67%.

Q: What about the “Growth Percent” value ([1]; CNS Cancer, SNB-19) of the same molecule?
A: The value was 74.13%.

Q: What about the “Growth Percent” value ([1]; CNS Cancer, SNB-75) of the same molecule?
A: The value was 69.43%.

Q: What about the “Growth Percent” value ([1]; CNS Cancer, U251) of the same molecule?
A: Its value is 40.73%.

Q: And the “Growth Percent” value ([1]; Colon Cancer, COLO 205)?
A: The value was 54.33%.

Q: What about the “Growth Percent” value ([1]; Colon Cancer, HCC-2998) of the same molecule?
A: Its value is 71.64%.

Q: And the “Growth Percent” value ([1]; Colon Cancer, HCT-116)?
A: Its value is −23.35%.

Q: What about the “Growth Percent” value ([1]; Colon Cancer, HT29) of the same molecule?
A: The value was 30.06%.

Q: What about the “Growth Percent” value ([1]; Colon Cancer, KM12) of the same molecule?
A: Its value is 57.14%.

Q: And the “Growth Percent” value ([1]; Colon Cancer, SW-620)?
A: Its value is 7.16%.

Q: And the “Growth Percent” value ([1]; Leukemia, CCRF-CEM)?
A: The value was 10.07%.

Q: What about the “Growth Percent” value ([1]; Leukemia, HL-60(TB)) of the same molecule?
A: Its value is 21.35%.

Q: What about the “Growth Percent” value ([1]; Leukemia, K-562) of the same molecule?
A: The value was 2.15%.

Q: And the “Growth Percent” value ([1]; Leukemia, MOLT-4)?
A: The value was 3.63%.

Q: What about the “Growth Percent” value ([1]; Leukemia, RPMI-8226) of the same molecule?
A: The value was −20.85%.

Q: What about the “Growth Percent” value ([1]; Leukemia, SR) of the same molecule?
A: Its value is “.71%”.

Q: And the “Growth Percent” value ([1]; Melanoma, LOX IMVI)?
A: Its value is −49.65%.

Q: And the “Growth Percent” value ([1]; Melanoma, M14)?
A: The value was 57.76%.

Q: And the “Growth Percent” value ([1]; Melanoma, MALME-3M)?
A: Its value is 69.51%.

Q: What about the “Growth Percent” value ([1]; Melanoma, MDA-MB-435) of the same molecule?
A: Its value is 51.52%.

Q: And the “Growth Percent” value ([1]; Melanoma, SK-MEL-2)?
A: Its value is 76.42%.

Q: What about the “Growth Percent” value ([1]; Melanoma, SK-MEL-5) of the same molecule?
A: Its value is 76.86%.

Q: And the “Growth Percent” value ([1]; Melanoma, SK-MEL-28)?
A: The value was 84.36%.

Q: And the “Growth Percent” value ([1]; Melanoma, UACC-62)?
A: The value was 67.65%.

Q: And the “Growth Percent” value ([1]; Melanoma, UACC-257)?
A: The value was 71.94%.

Q: And the “Growth Percent” value [1, 2]?
A: Its value is 61.70%.

Q: And the “Growth Percent” value [1, 3]?
A: Its value is 78.36%.

Q: And the “Growth Percent” value [1, 4]?
A: Its value is 87.08%.

Q: And the “Growth Percent” value [1, 5]?
A: Its value is 77.08%.

Q: What about the “Growth Percent” value [1, 6] of the same molecule?
A: Its value is 66.21%.

Q: What about the “Growth Percent” value [1, 7] of the same molecule?
A: Its value is 84.23%.

Q: And the “Growth Percent” value [1, 8]?
A: The value was 84.48%.

Q: And the “Growth Percent” value [1, 9]?
A: The value was 60.86%.

Q: What about the “Growth Percent” value ([1]; Ovarian Cancer, IGROV1) of the same molecule?
A: The value was 62.11%.

Q: What about the “Growth Percent” value ([1]; Ovarian Cancer, NCI/ADR-RES) of the same molecule?
A: Its value is 67.57%.

Q: What about the “Growth Percent” value ([1]; Ovarian Cancer, OVCAR-3) of the same molecule?
A: Its value is −4.15%.

Q: And the “Growth Percent” value ([1]; Ovarian Cancer, OVCAR-4)?
A: The value was 66.68%.

Q: And the “Growth Percent” value ([1]; Ovarian Cancer, OVCAR-5)?
A: The value was 91.77%.

Q: And the “Growth Percent” value ([1]; Ovarian Cancer, OVCAR-8)?
A: The value was 45.20%.

Q: And the “Growth Percent” value ([1]; Ovarian Cancer, SK-OV-3)?
A: Its value is 84.10%.

Q: What about the “Growth Percent” value ([1]; Prostate Cancer, DU-145) of the same molecule?
A: Its value is 24.05%.

Q: What about the “Growth Percent” value ([1]; Prostate Cancer, PC-3) of the same molecule?
A: Its value is 52.88%.

Q: What about the “Growth Percent” value ([1]; Renal Cancer, 786-0) of the same molecule?
A: Its value is −27.72%.

Q: What about the “Growth Percent” value ([1]; Renal Cancer, A498) of the same molecule?
A: The value was 77.80%.

Q: And the “Growth Percent” value ([1]; Renal Cancer, ACHN)?
A: The value was 37.67%.

Q: And the “Growth Percent” value ([1]; Renal Cancer, CAKI-1)?
A: Its value is 38.44%.

Q: And the “Growth Percent” value ([1]; Renal Cancer, RXF 393)?
A: Its value is 5.60%.

Q: And the “Growth Percent” value ([1]; Renal Cancer, SN12C)?
A: Its value is 64.13%.

Q: And the “Growth Percent” value ([1]; Renal Cancer, TK-10)?
A: Its value is 50.24%.

Q: And the “Growth Percent” value ([1]; Renal Cancer, UO-31)?
A: The value was 42.87%.

Q: And the “SK-MEL-5 (% inhibition)” value (SK-MEL-5)?
A: The value was 48%.

Q: What does the source list for `C[C@]12CCc3sc(Nc4ccc(OC(F)(F)F)cc4)nc3C1=CC[C@@H]1[C@@H]2CC[C@]2(C)C(=O)CC[C@@H]12` [IIa.19, (1S,2R,13R,14S,18S)-2,18-dimethyl-7-[4-(trifluoromethoxy)anilino]-6-thia-8-azapentacyclo[11.7.0.02,10.05,9.014,18]icosa-5(9),7,10-trien-17-one]?
A: Growth Percent ([1]; Breast Cancer, BT-549): 53.50%; Growth Percent ([1]; Breast Cancer, HS 578T): 38.46%; Growth Percent ([1]; Breast Cancer, MCF7): 17.08%; Growth Percent ([1]; Breast Cancer, MDA-MB-231/ATCC): 73.45%; Growth Percent ([1]; Breast Cancer, MDA-MB-468): 69.12%; Growth Percent ([1]; Breast Cancer, T-47D): 41.82%; Growth Percent ([1]; CNS Cancer, SF-268): 68.55%; Growth Percent ([1]; CNS Cancer, SNB-19): 56.49%; Growth Percent ([1]; CNS Cancer, SNB-75): 68.60%; Growth Percent ([1]; CNS Cancer, U251): 34.08%; Growth Percent ([1]; Colon Cancer, COLO 205): 67.03%; Growth Percent ([1]; Colon Cancer, HCC-2998): 96.47%; Growth Percent ([1]; Colon Cancer, HCT-116): 7.77%; Growth Percent ([1]; Colon Cancer, HT29): 12.95%; Growth Percent ([1]; Colon Cancer, KM12): 53.51%; Growth Percent ([1]; Colon Cancer, SW-620): 43.34%; Growth Percent ([1]; Leukemia, CCRF-CEM): 5.05%; Growth Percent ([1]; Leukemia, HL-60(TB)): 43.98%; Growth Percent ([1]; Leukemia, K-562): 8.20%; Growth Percent ([1]; Leukemia, MOLT-4): 4.15%; Growth Percent ([1]; Leukemia, RPMI-8226): 2.88%; Growth Percent ([1]; Leukemia, SR): 16.86%; Growth Percent ([1]; Melanoma, LOX IMVI): 34.82%; Growth Percent ([1]; Melanoma, M14): 83.90%; Growth Percent ([1]; Melanoma, MALME-3M): 76.83%; Growth Percent ([1]; Melanoma, MDA-MB-435): 77.59%; Growth Percent ([1]; Melanoma, SK-MEL-2): 61.81%; Growth Percent ([1]; Melanoma, SK-MEL-5): 95.89%; Growth Percent ([1]; Melanoma, SK-MEL-28): 65.29%; Growth Percent ([1]; Melanoma, UACC-62): 63.42%; Growth Percent ([1]; Melanoma, UACC-257): 84.04%; Growth Percent [1, 2]: 67.03%; Growth Percent [1, 3]: 78.41%; Growth Percent [1, 4]: 80.02%; Growth Percent [1, 5]: 74.98%; Growth Percent [1, 6]: 75.47%; Growth Percent [1, 7]: 74.91%; Growth Percent [1, 8]: 77.29%; Growth Percent [1, 9]: 53.27%; Growth Percent ([1]; Ovarian Cancer, IGROV1): 93.62%; Growth Percent ([1]; Ovarian Cancer, NCI/ADR-RES): 81.59%; Growth Percent ([1]; Ovarian Cancer, OVCAR-3): 37.42%; Growth Percent ([1]; Ovarian Cancer, OVCAR-4): 63.99%; Growth Percent ([1]; Ovarian Cancer, OVCAR-5): 91.93%; Growth Percent ([1]; Ovarian Cancer, OVCAR-8): 66.51%; Growth Percent ([1]; Ovarian Cancer, SK-OV-3): 69.90%; Growth Percent ([1]; Prostate Cancer, DU-145): 66.11%; Growth Percent ([1]; Prostate Cancer, PC-3): 38.59%; Growth Percent ([1]; Renal Cancer, 786-0): 30.50%; Growth Percent ([1]; Renal Cancer, A498): 75.00%; Growth Percent ([1]; Renal Cancer, ACHN): 71.59%; Growth Percent ([1]; Renal Cancer, CAKI-1): 60.44%; Growth Percent ([1]; Renal Cancer, RXF 393): −32.25%; Growth Percent ([1]; Renal Cancer, SN12C): 71.17%; Growth Percent ([1]; Renal Cancer, TK-10): 98.20%; Growth Percent ([1]; Renal Cancer, UO-31): 54.33%; SK-MEL-5 (% inhibition) (SK-MEL-5): 43%

— patent US20250296953A1, “3,4-THIAZOLO-STEROIDS AND METHODS OF MAKING AND USING THE SAME” (Arkansas State University - Jonesboro, priority 2018, published 2025)
